{
  "source": "patent US11931423B2",
  "about": "“Glucose oxidase-nanoparticle bioconjugates for cancer treatment” (UNIVERSITY OF PITTSBURGH—OF THE COMMONWEALTH SYSTEM OF …, priority 2017, dated 2024)",
  "test_system": "A431 cells with high EGFR expression",
  "experiment": "A431 cell viability (CellTiter-Glo viability assay)",
  "assay_type": "cell-based",
  "settings": "Homo sapiens, A-431, 50 μM (30 μg/mL), after 24 h, PBS = 100% viability",
  "description": "As a comparison, the A431 cells were also treated with SPION alone, a mixture of unconjugated SPION and GOx, and doxorubicin (a chemotherapy drug).\nA431 cancer cells were purchased from ATCC. They were cultured in Dulbecco's Modified Eagle Medium (DMEM) containing 10% FBS, penicillin (100 U/mL), and streptomycin (100 μg/mL) at 37° C. in a humidified atmosphere containing 5% CO2 and 95% air.\n50 μL SPION, the mixture of GOx and SPION without conjugation, mAb-GOx-SPION, doxorubicin, or PBS (as a control) were each added to a 96-well plate seeded with A431 cancer cells, followed by addition of 100 μL of DMEM containing 4 g/L glucose. After being incubated for various amounts of time, the cells were washed with PBS 3 times. 100 μL DMEM was added before cell viability was measured by using a CellTiter-Glo viability assay kit.\nThe cytotoxic effects of the system as functions of the concentrations of both cetuximab-GOx-SPION and glucose were investigated. 50 μL cetuximab-GOx-SPION (1.0 μg/mL) was added to 96-well plates seeded with A431 and HeLa cancer cells, followed by addition of 100 μL of DMEM that contains glucose at 20 g/L. After 1.5 h incubation, the cells were washed with PBS 3 times and then cultured in 200 μL of DMEM. After being incubated for another 12 h, cell viability was measured by using CellTiter-Glo viability assay kit. […]",
  "data": [
    {"smiles": "COc1cccc2c1C(=O)c1c(O)c3c(c(O)c1C2=O)C[C@@](O)(C(=O)CO)C[C@@H]3O[C@H]1C[C@H](N)[C@H](O)[C@H](C)O1", "note": "[doxorubicin]", "values": [
      {"measurement": "viability at 50 µM", "result": "~3", "unit": "%"}
    ]}
  ]
}
